Counter-ions that a name gives are not always drawn.
Key:
[1] = test system: HO-1; assay: HO-1 protein expression in heart and spleen after CoPPIX (Western blot); assay type: in vivo, DBA/2 mice; settings: CoPPIX 5 mg/kg i.p.
Experimental: Protein extraction and Western blot. DBA/2 mice were injected i.p. with CoPPIX at a dose of 5 mg/kg. Non-treated animals served as naïve controls. One, 2, 4, and 7 days following treatment, the heart and the spleen were excised from the animals, and samples were snap-frozen in liquid nitrogen. Protein extracts were prepared from the obtained tissues, electrophoresed under denaturing conditions (10% polyacrylamide gels) and transferred onto polyvinyldifluoridine membranes (Immobilon™ P, Millipore, Bedford, Mass.). HO-1 was detected using the rabbit anti-human HO-1 polyclonal antibody (Stress Gen Biotechnologies Corp., Victoria, Canada); α-actin was detected using the goat anti-mouse α-actin mAb (1A4, Sigma-Aldrich Corporation). Primary antibodies were detected using horseradish peroxidase conjugated donkey anti-rabbit or goat anti-mouse IgG secondary antibodies (Pierce, Rockford, Ill.). Protein was visualized using the Enhanced Chemi Luminescence (ECL™) Assay kit (Amersham Life Science Inc., Arlington Heights, Ill.), according to the manufacturer's instructions, and stored in the form of photo radiographs (Biomax™ MS, Eastman Kodak, Rochester, N.Y.). The amount of HO-1 expression was normalized with α-actin expression, and was quantified by using the ImageQuant™ software (Molecular Dynamics, Sunny Vale, Calif.).

[2] = test system: HO-1; assay: HO-1 expression in donor tissues and islets after CoPP; assay type: in vivo, mice; settings: CoPP given to the donor animal; heart, kidney, pancreas, liver and spleen
Experimental: Induction of HO-1/Administration of biliverdin/bilirubin. When given to the donor, CoPPIX (20 mg/kg) was given 24 hours before islet isolation to induce HO-1 expression. To verify HO-1 expression in different organs after CoPP treatment, tissue samples are collected 24 hours after treatment and snap frozen in liquid nitrogen. Immunohistological analysis of HO-1 expression is performed using an anti-HO-1 antibody. CoPPIX (20 mg/kg) was administrated to the recipient intraperitoneally (i.p.) on day-1, 1, 3, 5 and 7. Biliverdin (50 μmol/kg) or bilirubin (8.5 μmol/kg) was given intraperitoneally to the donor one hour before islet isolation. For the recipient, biliverdin (50 μmol/kg) or bilirubin ([…]) was administered intraperitoneally either daily or twice per day from day-1 until day 13. No further treatment was given afterwards.
Semi-Quantitative PCR. RNA was extracted using Rneasy™ Mini Kits (Qiagen Inc., CA, USA) and reverse transcribed into cDNA with the RNA PCR Kit (TaKaRa, PanVera, Madison, Wis., USA). A total of 2 μg of cDNA was amplified in a 50 μl reaction mix containing 10 μM dNTPs, […] of 5′-prime and 3′-prime oligos, 2.5 U of LA-Taq polymerase (TaKaRa) and MgCl2, specific to each primer pair used. […] PCR products (10-20 μl) were analyzed in an ethidium bromide-stained 1% agarose gel.

[3] = test system: NF-κB; assay: EMSA of nuclear extracts, NF-κB DNA binding; assay type: cell-based; settings: Jurkat T cells, PMA plus ionomycin, 100 μM biliverdin
Experimental: (§1) Nuclear protein extraction and electrophoretic mobility shift assay (EMSA). Jurkat T cells were cultured in 10% FCS supplemented RPMI 1640 with 50 nM phorbol myristyl acetate (PMA) and 2 μM ionomycin (both reagents from ICN Biomedicals) in the presence or absence of 100 μM biliverdin. Following 0, 2, and 4 hrs of stimulation, cells (30×10^6 cells for each group at each time points) were collected, washed twice with PBS, and pelleted. Nuclear and cytoplasmic extracts were prepared according to a modified Shapiro's method (Shapiro et al., DNA 7(1):47-55, 1988). Protein concentrations were determined by the Bradford assay. The following oligonucleotides (Invitrogen, Calsbad, Calif.) were used for EMSA:
NF-κB, (coding) 5′-[…]-3′ (SEQ ID NO:7),
(non-coding) 5′-[…]-[…]-3′ (SEQ ID NO:8).
(§2) Oligonucleotides were radioactively labeled with [^32P] ATP. The EMSA reactions were assembled as previously described (Usheva et al., Proc. Natl. Acad. Sci. USA 93(24):13571-6, 1996). Digital images from the EMSA radiographs were obtained using an image scanner.

[4] = test system: NFAT; assay: EMSA of nuclear extracts, NFAT DNA binding; assay type: cell-based; settings: Jurkat T cells, PMA plus ionomycin, 100 μM biliverdin
Experimental: as §1
NFAT, (coding) 5′-[…]-3′ (SEQ ID NO:5),
(non-coding) 5′-[…]-3′ (SEQ ID NO:6); and
as §2

| SMILES | HO-1 protein expression in the heart and spleen [1] | time of maximal HO-1 expression after injection [1] | HO-1 expression in donor tissues [2] | DNA binding of NF-κB [3] | DNA binding of NFAT [4] |
| --- | --- | --- | --- | --- | --- |
| C=CC1=C(C)c2cc3[n-]c(cc4nc(cc5[n-]c(cc1n2)c(C)c5CCC(=O)[O-])C(CCC(=O)[O-])=C4C)c(C)c3C=C.[Co+2].[H+].[H+] [CoPP, Cobalt protoporphyrin] | up-regulated | one | HO-1 expression was observed in several different tissues | – | – |
| C=CC1=C(C)/C(=C/C2=NC(=C\c3[nH]c(/C=C4\NC(=O)C(C)=C4C=C)c(C)c3CCC(=O)O)/C(CCC(=O)O)=C2C)NC1=O [biliverdin, biliverdin dihydrochloride] | – | – | – | inhibited DNA binding | inhibited DNA binding |

— US8097585B2, “Methods of treating inflammation by administration of heme oxygenase-1 and products of heme degradation” (priority 2002, dated 2012)
